According to patent US20230128252A1, “PHARMACEUTICAL COMPOSITIONS” (Shenzhen Pharmacin Co., Ltd., priority 2020, published 2023):
In brackets after ≈: the same amount, converted by molar mass.

Assays:
[1] = Solubility of clofazimine in fatty acids; format: physicochemical; conditions: fatty acid, 25 °C
[2] = tested on: imiquimod-induced psoriasis like mouse model; experiment: imiquimod-induced psoriasis like mouse model, PASI method; format: in vivo, C57BL/6J mice; conditions: Formulations 1-3, topical
Text: Fifty C57BL/6J mice were random divided into 5 groups, naïve group, model group, Formulation 1-3 groups. All mice were shaved on the back. Naïve group was the negative group and as the blank control. The other four groups were locally applied with 5% imiquimod cream (sold under the tradename Aldara®) once a day for a week. […] In the last three days, the changes of skin lesions were observed and evaluated by PASI method. PASI method: the scores of erythema, scale and infiltration thickening in the skin lesions were scored respectively, and the sum of the three scores was the total score. PASI scoring standard: 0, none; 1, mild; 2, moderate; 3, severe; 4, extremely severe.

[3] = preparation of clofazimine carbomer gel with organic solvents; format: physicochemical; conditions: Carbomer 940 gel in water, pH 7.0
[4] = Solubility of clofazimine in aqueous media; format: physicochemical; conditions: aqueous medium, aqueous with cosolvent or surfactant or cyclodextrin, thermodynamic from solid; pH 4.5 + 0.25% SDS, 25° C.
Protocol: Clofazimine was added to various aqueous media, at various pH values (2-5 mL) in a 10 mL glass vial, at 25° C., with stirring. […] This cycle was repeated until no further dissolution was observable. The suspension was then centrifuged and the supernatant filtered by microfiltration.

[5] = pharmacokinetics and tissue distribution after single-dose topical application in minipigs; format: in vivo, Bama minipigs; conditions: Formulation 11 (0.03%) single topical application
Protocol: Studies were performed to evaluate the pharmacokinetics and tissue distribution after a single-dose topical application of Formulation 11 (clofazimine 0.03%) in Bama minipigs. 24 Bama minipigs were divided into 6 groups (n=4), each group of minipigs received a single topical application of Formulation 11 (0.03%) at a dose of 1.5 mg ointment/cm^2. Blood samples, epidermis, dermis, subcutaneous tissue and subcutaneous muscle were collected at 0.5, 4, 24, 48, 72 and 96 hours (one time point for one group) after drug application. A validated LC-MS/MS method was used to determine the concentration of clofazimine in plasma, epidermis, dermis, subcutaneous tissues and subcutaneous muscle and the pharmacokinetic parameters were calculated (the standard curve range of clofazimine is 0.0100˜10.0 ng/mL).

[6] = Skin permeability of clofazimine preparations (vertical Franz diffusion cells); format: in vitro ADME, NU/NU nude mice

SMILES: CC(C)/N=c1\cc2n(-c3ccc(Cl)cc3)c3ccccc3nc-2cc1Nc1ccc(Cl)cc1 [Clofazimine, N,5-bis(4-chlorophenyl)-3-propan-2-ylimino phenazin-2-amine]
- solubility ([1]; oil or lipid, Heptanoic acid): 78.3 mg/mL (≈ 165 mM)
- solubility ([1]; oil or lipid, Hexanoic acid): 80.7 mg/mL (≈ 170 mM)
- solubility ([1]; oil or lipid, Linoleic acid): 90.2 mg/mL (≈ 191 mM)
- solubility ([1]; oil or lipid, Octanoic acid): 56.3 mg/mL (≈ 119 mM)
- solubility ([1]; oil or lipid, Oleic acid): 106 mg/mL (≈ 223 mM)
- solubility ([1]; organic solvent or mixture, Acetic acid): 30.2 mg/mL (≈ 63.8 mM)
- solubility ([1]; organic solvent or mixture, Butyric acid): 49.2 mg/mL (≈ 104 mM)
- solubility ([1]; organic solvent or mixture, Isovaleric acid): 58.6 mg/mL (≈ 124 mM)
- solubility ([1]; organic solvent or mixture, Propionic acid): 28.2 mg/mL (≈ 59.7 mM)
- treatment effect on the imiquimod-induced psoriasis like mouse model [2]: confirmed the treatment effect
- outcome of gel preparation ([3]; solvent Laurocapram): formation of separated layers
- outcome of gel preparation ([3]; solvent Propylene glycol): clofazimine precipitation
- solubility at 24 h [4]: 0.71 mg/mL
- median time to peak dermal concentration [5]: about 4 h
- median time to peak epidermal concentration [5]: about 0.5 h
- median time to peak subcutaneous muscle concentration [5]: about 0.5 h
- median time to peak subcutaneous tissues concentration [5]: about 4 h
- tissue distribution [5]: mainly distributed in the epidermis and dermis, and not absorbed into blood
- clofazimine content (Table 12, FIG. 3) ([6]; Gel, PEG 400 10 wt %): 1.6000 μg/cm^2
- clofazimine content (Table 12, FIG. 3) ([6]; Gel, Transcutol): 0.1894 μg/cm^2
- clofazimine content (Table 12, FIG. 3) ([6]; Gel, Tween 80 10 wt %): 0.9800 μg/cm^2
- clofazimine content (Table 12, FIG. 3) ([6]; Gel, labrasol 10 wt %): 0.8200 μg/cm^2
- clofazimine content (Table 12, FIG. 3) ([6]; Solvents (solution), PEG 400 99.9 wt %): 0.2700 μg/cm^2
- clofazimine content (Table 12, FIG. 3) ([6]; Solvents (solution), Transcutol): 0.0596 μg/cm^2
- clofazimine content (Table 12, FIG. 3) ([6]; Solvents (solution), Tween 80 99.9 wt %): 0.2500 μg/cm^2
- clofazimine content (Table 12, FIG. 3) ([6]; Solvents (solution), labrasol 99.9 wt %): 0.2600 μg/cm^2
- clofazimine content ([6]; gel: Carbomer 940 0.5, Transcutol 20, Lecithin 5 wt %, pH 7.0, clofazimine amount 0.01%): 0.0568 ug/cm^2
- clofazimine content ([6]; gel: Carbomer 940 0.5, Transcutol 20, Lecithin 5 wt %, pH 7.0, clofazimine amount 0.02%): 0.1971 ug/cm^2
- clofazimine content ([6]; gel: Carbomer 940 0.5, Transcutol 20, Lecithin 5 wt %, pH 7.0, clofazimine amount 0.05%): 0.5394 ug/cm^2
- clofazimine content ([6]; gel: Carbomer 940 0.5, Transcutol 20, Lecithin 5 wt %, pH 7.0, clofazimine amount 0.1%): 0.8014 ug/cm^2
- clofazimine content ([6]; gel: Carbomer 940 0.5, Transcutol 20, Lecithin 5 wt %, pH 7.0, clofazimine amount 0.2%): 0.7102 ug/cm^2
- clofazimine content ([6]; gel: Carbomer 940 0.5, Transcutol 20, Lecithin 5 wt %, pH 7.0, clofazimine amount 0.5%): 0.7512 ug/cm^2
- clofazimine content ([6]; gel: clofazimine 0.1, Carbomer 940 0.5, Transcutol 20, Lecithin 5 wt %, pH 6.0): 0.4246 ug/cm^2
- clofazimine content ([6]; gel: clofazimine 0.1, Carbomer 940 0.5, Transcutol 20, Lecithin 5 wt %, pH 7.0): 0.4146 ug/cm^2
- clofazimine content ([6]; gel: clofazimine 0.1, Carbomer 940 0.5, Transcutol 20, Lecithin 5 wt %, pH 8.0): 0.3463 ug/cm^2
- clofazimine content ([6]; gel: clofazimine 0.1, Carbomer 940 0.5, Transcutol 20, Lecithin 5 wt %, pH 9.0): 0.2970 ug/cm^2
- clofazimine content ([6]; gel: clofazimine 0.1, Carbomer 940 0.5, Transcutol 20, Lecithin 5 wt %, pH 9.5): 0.2463 ug/cm^2
- clofazimine content ([6]; gel: clofazimine 0.1, Carbomer 940 0.5, Transcutol 20 wt %, pH 7.0, Control (water instead of penetration enhancer)): 0.1331 ug/cm^2
- clofazimine content ([6]; gel: clofazimine 0.1, Carbomer 940 0.5, Transcutol 20 wt %, pH 7.0, lecithin 2%): 0.2272 ug/cm^2
- clofazimine content ([6]; gel: clofazimine 0.1, Carbomer 940 0.5, Transcutol 20 wt %, pH 7.0, lecithin 3%): 0.2745 ug/cm^2
- clofazimine content ([6]; gel: clofazimine 0.1, Carbomer 940 0.5, Transcutol 20 wt %, pH 7.0, lecithin 4%): 0.3026 ug/cm^2
- clofazimine content ([6]; gel: clofazimine 0.1, Carbomer 940 0.5, Transcutol 20 wt %, pH 7.0, lecithin 5%): 0.3578 ug/cm^2
- clofazimine content ([6]; gel: clofazimine 0.1, Carbomer 940 0.5, Transcutol 20 wt %, pH 7.0, lecithin 6%): 0.3335 ug/cm^2
- clofazimine content ([6]; gel: clofazimine 0.1, Carbomer 940 0.5, Transcutol 20 wt %, pH 7.0, lecithin 10%): 0.3968 ug/cm^2
- clofazimine content ([6]; gel: clofazimine 0.1, Carbomer 940 0.5, Transcutol 20 wt %, pH 7.0, lecithin 19%): 0.2989 ug/cm^2
- clofazimine content ([6]; gel: clofazimine 0.1, Carbomer 940 0.5, Transcutol 20 wt %, pH 7.0, penetration enhancer 4 wt %: DMSO): 0.1806 ug/cm^2
- clofazimine content ([6]; gel: clofazimine 0.1, Carbomer 940 0.5, Transcutol 20 wt %, pH 7.0, penetration enhancer 4 wt %: Ethanol): 0.2055 ug/cm^2
- clofazimine content ([6]; gel: clofazimine 0.1, Carbomer 940 0.5, Transcutol 20 wt %, pH 7.0, penetration enhancer 4 wt %: Lecithin): 0.9881 ug/cm^2
- clofazimine content ([6]; gel: clofazimine 0.1, Carbomer 940 0.5, Transcutol 20 wt %, pH 7.0, penetration enhancer 4 wt %: Octanol): 0.6230 ug/cm^2
